Marks after values point to notes of the source that are not given here.
Tests used:
[1] = tested on: n-heptanoyl ghrelin in the stomach; test: Molecular forms of stomach ghrelin after glyceryl triheptanoate ingestion (HPLC, C-RIA and N-RIA); type: in vivo, mouse
Method: (§1) Male C57BL/6J mice weighing 20-25 g (10-12 week old) were maintained under controlled temperature (21-23° C.) and light conditions (light on 0700-1900) with ad libitum access to food and water. Medium-chain fatty acids (MCFAs), i.e., n-hexanoic, n-octanoic, and n-lauric acids (Sigma-Aldrich Japan Co., Ltd., Tokyo), were dissolved in water at 5 mg/ml. n-Palmitic acid, a common long-chain fatty acid (LCFA) (Sigma-Aldrich Japan Co., Ltd., Tokyo), was mixed into standard laboratory chow (CLEA Rodent Diet CE-2, CLEA Japan, Osaka) at a concentration of 1% (w/w), to equilibrate the total intake amount of this lipid to the other medium-chain fatty acids contained in the food. Medium- and long-chain triglycerides (MCTs and LCTs), i.e., glyceryl trihexanoate, trioctanoate, tridecanoate and tripalmitates (Wako Pure Chemical, Osaka, Japan), were mixed with standard laboratory chow at a concentration of 5% (w/w). Whole stomach tissues from treated mice were collected at the indicated times (0-14 days) after ingesting the free fatty acid- or triacylglyceride-containing food. Fresh tissue samples from these mice were diced and boiled for 5 minutes in a 10-fold volume of water. The tissue-containing solution was then adjusted to 1M acetic acid after cooling and then homogenized with a Polytron mixer. The supernatant, obtained after centrifugation at 15,000 rpm for 15 minutes, was then lyophilized. The lyophilized material was dissolved in RIA buffer and subjected to ghrelin C- and N-RIA. To elucidate the forms of ghrelin peptides modified by different acyl groups, extracted stomach peptides were collected using a Sep-Pak Plus C18 cartridge (Waters, Milford, Mass.) and subjected to C18 RP-HPLC (Symmetry 300, 3.9×150 mm, Waters) with a linear gradient from 10 to 60% CH3CN/0.1% TFA at a flow rate of 1.0 ml/minute for 40 minutes. Five hundred micro-litter fractions were collected. Ghrelin peptide content in each fraction was measured by ghrelin C- and N-RIA as described above. Degradation of ghrelin was not observed during the extraction.
Male C57BL/6J mice weighing 20-25 g (10-12 week old) were maintained under controlled temperature (21-23° C.) and light conditions (light on 0700-1900) with ad libitum access to food and water. Glyceryl triheptanoate (Fluka Chemie GmbH, Buchs, Switzerland) was mixed with standard laboratory chow at a concentration of 5% (w/w). Four days after mice were fed glyceryl triheptanoate-containing food, stomachs (total 1,000 mg) were recovered from mice (n=7). The total consumption of glyceryl triheptanoate-containing food was approximately 13.5 g/mouse, amounting to 675 mg total glyceryl triheptanoate ingested by each mouse. Stomachs were minced and boiled for 5 minutes in 5× volumes of water to inactivate intrinsic proteases. […]

plasma ghrelin peptides = test: Molecular forms of circulating (plasma) ghrelin after glyceryl triheptanoate ingestion; type: in vivo, mouse; conditions: fed 4 days, HPLC, C-RIA
Method: Plasma samples were prepared as previously described [D2]. Whole blood samples were immediately transferred to chilled polypropylene tubes containing EDTA-2 Na (1 mg/ml) and aprotinin (1,000 kallikrein inactivator units/ml) and centrifuged at 4° C. Immediately after separation of the plasma, hydrogen chloride was added to the sample at final concentration of 0.1 N and then diluted with an equal volume of physiological saline. The sample was loaded onto a Sep-Pak C18 cartridge (Waters, Milford, Mass.) pre-equilibrated with 0.1% trifluoroacetic acid (TFA) and 0.9% NaCl. The cartridge was washed with 0.9% NaCl and 5% acetonitrile (CH3CN)/0.1% TFA, and then eluted with 60% CH3CN/0.1% TFA. The eluate was then lyophilized and residual materials were redissolved in 1 M acetic acid (AcOH) and adsorbed onto a SP-Sephadex C-25 column (H^+-form, Pharmacia, Uppsala, Sweden) pre-equilibrated in 1 M AcOH. Successive elution with 1 M AcOH, 2 M pyridine, and 2 M pyridine-AcOH (pH 5.0) provided three fractions: SP-I, SP-II and SP-III. […] Ghrelin peptide content in each fraction was measured by ghrelin C-RIA as described above.
Plasma samples collected from control mice fed standard chow (A) and glyceryl triheptanoate-treated mice (B) were fractionated by HPLC and measured for ghrelin immunoreactivity by C-RIA. […]

[2] = tested on: acyl-modified and total ghrelin in the stomach; test: Stomach ghrelin content after medium- to long-chain triacylglycerol ingestion (N-RIA / C-RIA); type: in vivo, mouse; conditions: mice, 5% (w/w) in chow, two weeks, N-RIA
Method: (§2) RIAs specific for ghrelin were performed as previously described [D2]. Two polyclonal antibodies were raised in rabbits against the N-terminal (Gly^1-Lys^11 with O-n-octanoylation at Ser^3) and C-terminal (Gln^13-Arg^28) fragments of rat ghrelin. RIA incubation mixtures were composed of 100 μl of either standard ghrelin or an unknown sample, with 200 μl of antiserum diluted in RIA buffer (50 mM sodium phosphate buffer (pH 7.4), 0.5% BSA, 0.5% Triton-X100, 80 mM sodium chloride (NaCl), 25 mM disodium ethylenediamine-tetraacetate (EDTA 2-Na) and 0.05% sodium azide (NaN3)) containing 0.5% normal rabbit serum. Anti-rat ghrelin [D1-D11] and anti-rat ghrelin [D13-D28] antisera were used at final dilutions of 1/3,000,000 and 1/20,000, respectively. After a 12-hour incubation at 4° C., 100 μl of ^125I-labeled ligand (20,000 cpm) was added for an additional 36-hour incubation. Then, 100 μl of anti-rabbit goat antibody was added. After incubation for 24 hours at 4° C., free and bound tracers were separated by centrifugation at 3,000 rpm for 30 min. Pellet radioactivity was quantified in a gamma counter (ARC-600, Aloka, Tokyo). All assays were performed in duplicate at 4° C.
as §1
Orally ingested triacylglycerols are intraluminally hydrolyzed and absorbed through the gastro-intestinal mucosa as free fatty acids or monoglycerides. Thus, ingested triacylglycerols may serve as a source of free fatty acids [D26]. To examine if ingested triacylglycerols are used for acyl-modification of ghrelin, mice were fed chow mixed with 5% (w/w) glyceryl trihexanoate (C6), trioctanoate (C8), tridecanoate (C10), and tripalmintate (C16). After two weeks, gastric peptides were extracted. Ghrelin concentration in the stomach of these mice and in that from mice fed standard laboratory chow (Control) (n=8) are shown. The content of acyl-modified and total ghrelins was measured by N- and C-RIA. […]

[3] = tested on: des-acyl and acyl-modified ghrelin peptides in the stomach; test: Molecular forms of stomach ghrelin peptide after ingestion (HPLC fractionation, C-RIA); type: in vivo, mouse
Method: as §1
To clarify what molecular forms of ghrelin peptide are present after the ingestion of triacylglycerol (triacylglycerin), peptide extracts from stomachs of mouse fed chow containing glyceryl trihexanoate (C6:0-MCT), glyceryl trioctanoate (C8:0-MCT), glyceryl tridecanoate (C10:0-MCT), and standard laboratory chow (Control) were fractionated by HPLC, and measured for ghrelin immunoreactivity by C-RIA. […] Based on the observed retention times of synthetic acyl-modified ghrelin peptides, peaks a, d, h, and k corresponded to des-acyl ghrelin, peaks b, f, i, and 1 corresponded to n-octanoyl (C8:0) ghrelin, and peaks c, g, j, and m corresponded to n-decenoyl (10:1) ghrelin.
Male C57BL/6J mice were fed chow mixed with 5% (w/w) glyceryl trihexanoate (C6:0-MCT), glyceryl trioctanoate (C8:0-MCT), or glyceryl tri-decanoate (C10:0-MCT) for 14 days. The concentrations of des-acyl ghrelin, n-hexanoyl ghrelin (C6:0-ghrelin), n-octanoyl ghrelin (C8:0-ghrelin), n-decenoyl ghrelin (C10:1-ghrelin), and n-decanoyl ghrelin (C10:0-ghrelin) from stomach samples (from 0.2 mg wet weight) were measured by ghrelin C-RIA after HPLC fractionation.

[4] = tested on: acyl-modified and total ghrelin in the stomach; test: Time course of acyl-modified ghrelin production after glyceryl trioctanoate ingestion; type: in vivo, mouse
Method: To examine time-dependent changes in the production of n-octanoyl ghrelin after the ingestion of a glyceryl trioctanoate, mice were fed with glyceryl trioctanoate-containing chow (5%, w/w) after a 12-hour fasting period. The concentrations of acyl-modified and total ghrelins in the stomach were measured at the indicated times.
A represents acyl-modified ghrelin content measured by ghrelin N-RIA. B represents total ghrelin content measured by ghrelin C-RIA. After 12-hour fasting, glyceryl trioctanoate (5% w/w)-containing chow was given to mice beginning at the time (0 hour) indicated by the arrow. Stomach samples were isolated from control mice fed standard laboratory chow (closed circles) and mice fed glyceryl trioctanoate (open circles) at the indicated times. Each point represents mean ±S.D. (n=8). Asterisks indicate statistical significance. *, p<0.05; **, p<0.01 and ***, p<0.001 vs. control.

ghrelin mRNA = test: Northern blot of stomach ghrelin mRNA after glyceryl trioctanoate ingestion; type: in vivo, mouse; conditions: after 4 days of ingestion
From the text: Total RNAs were extracted from the stomachs of male C57BL/6J mice (12 week old) by acid guanidium thiocyanate-phenol chloroform extraction [D24] using TRIzol reagent (Invitrogen, Carlsbad Calif., USA). Two μg of total RNA was electrophoresed through a 1% agarose gel containing formaldehyde, and then transferred to a Zeta-Probe blotting membrane (Bio-Rad Laboratories, Hercules, Calif.). Membranes were hybridized with a ^32P-labeled rat ghrelin cDNA probe in hybridization buffer containing 50% formamide, 5×SSPE, 5×Denhardt's solution, 1% sodium dodecyl sulfate (SDS), and 100 μg/ml denatured salmon sperm. After an overnight hybridization at 37° C., membranes were washed and exposed to BioMax-MS film (Eastman Kodak, Rochester, N.Y.) for 12 hours at −80° C. Ghrelin mRNA levels were quantified using a Bioimaging analyzer BAS 2000 (Fujix, Tokyo, Japan).
To examine if the ingestion of MCTs affects the expression of ghrelin mRNA, mouse stomach RNA was quantitated by Northern blot analysis after 4 days of glyceryl trioctanoate ingestion.
Each lane contained 2 μg of total RNA. The lower panel indicates 28S and 18S ribosomal RNAs internal controls.

[5] = tested on: anti-rat ghrelin [D1-D11] antiserum; test: Cross-reactivity of ghrelin N-RIA; type: binding, rabbit; conditions: for cross-reactivity of N-RIA: relative to n-octanoyl ghrelin
Method: as §2
The cross-reactivity of N-RIA to n-decanoyl ghrelin and that to n-hexanoyl ghrelin are 20% and 0.3%, respectively. Anti-rat ghrelin [D13-D28] antiserum equally recognized both des-acyl and all acylated forms of ghrelin peptide. In the following sections, the RIA system using the antiserum against the N-terminal fragment of rat ghrelin [D1-D11] is termed N-RIA, while the RIA system using antiserum against the C-terminal fragment [D13-D28] is termed C-RIA.

[6] = stomach extract, HPLC fraction, 0.2 mg stomach tissue equivalent
[7] = mice, 5% (w/w) in chow, 14 days, from 0.2 mg wet weight, C-RIA after HPLC, mean ± S.D.

With `CCCCCCC(=O)OCC(COC(=O)CCCCCC)OC(=O)CCCCCC` [glyceryl triheptanoate] the “appearance of peak b / d (n-heptanoyl ghrelin) immunoreactivity in stomach extracts” value ([1]; mice, HPLC, C-RIA / N-RIA) was “observed only in mice fed glyceryl triheptanoate”, the “concentration of peak b (n-heptanoyl ghrelin) determined by C-RIA” value [1, 6] was 466.3 fmol/tube and the “concentration of peak d (n-heptanoyl ghrelin) measured by N-RIA” value [1, 6] was 74.9 fmol/tube. For the same molecule, the “appearance of plasma peak f (retention time of n-heptanoyl ghrelin)” value (plasma ghrelin peptides) was “observed only in samples from glyceryl triheptanoate-treated mice”.

`CCCCCCCC(=O)OCC(COC(=O)CCCCCCC)OC(=O)CCCCCCC` [glyceryl trioctanoate] was tested, and the “production of acyl-modified ghrelin in stomach tissue” value [2] was “stimulated production”, the “C6:0-ghrelin (n-hexanoyl ghrelin) concentration in the stomach” value [3, 7] was 12.4 ± 4.9 and the “C8:0-ghrelin (n-octanoyl ghrelin) concentration in the stomach” value [3, 7] was 774.0 ± 89.1^c). For the same molecule, the “C10:0-ghrelin (n-decanoyl ghrelin) concentration in the stomach” value [3, 7] was 8.1 ± 3.1, the “Des-acyl ghrelin concentration in the stomach” value [3, 7] was 236.6 ± 21.1 and the “C10:1-ghrelin (n-decenoyl ghrelin) concentration in the stomach” value ([3]; mice, 5% (w/w) in chow, 14 days, from 0.2 mg wet weight, C-RIA after HPLC, mean ± S.D., fraction holds unidentified ghrelin molecules too) was 51.5 ± 13.2^a). For the same molecule, the “stomach ghrelin modified by the acyl group corresponding to the ingested lipid” value ([3]; mice, HPLC peak, C-RIA) was “stimulated the production of n-octanoyl ghrelin”, the “molar ratio of n-octanoyl/total ghrelin” value ([3]; stomach of treated mice) was “over 60%” and the “stomach concentration of acyl-modified ghrelin vs normal chow” value ([4]; 14 days after ingestion, N-RIA) was “remained significantly higher”. The “onset of increase of acyl-modified ghrelin content in the stomach” value ([4]; mice, 5% w/w chow after 12-hour fasting, N-RIA) was “increased three hours after the ingestion”, the “time to maximal levels of n-octanoyl ghrelin in the stomach after starting ingestion” value ([4]; mice, 5% w/w chow continuously supplied) was 24 h and the “stomach content of total ghrelin” value ([4]; time course, C-RIA) was “no significant changes”. For the same molecule, the “expression level of gastric ghrelin mRNA” value (ghrelin mRNA) was “did not change”.

In the case of “des-acyl ghrelin: ghrelin peptide in which the position-3 amino acid is not acylated (GSSFLSPEHQRVQQRKESKKPPAKLQPR; Ghrelin-28 non-acylated; UniProt Q9UBU3 24-51, looked up)”, the “recognition by anti-rat ghrelin [D1-D11] antiserum” value [5] is reported as “did not recognize”.

For n-decanoyl ghrelin, the “cross-reactivity of N-RIA” value [5] was 20%.

With n-hexanoyl ghrelin the “cross-reactivity of N-RIA” value [5] was 0.3%.

Reference: US20080293818A1, “Regulator of Physiological Function of Ghrelin and Use Thereof” (priority 2004, published 2008)
